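Five concentrations, 48 hours, 96-well plates. GI50 = concentration required for 50% inhibition of growth.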 Calls of active or inactive are those of the source. Rule as the data show it: active = GI50 up to about 1.1 µM and inactive = higher.
What was measured:
Assay in all cases: NCI tumour cell line growth inhibition, 48 h
LOX IMVI = tested on: LOX IMVI
T47D = tested on: T47D
OVCAR-8 = tested on: OVCAR-8
NCI-H522 = tested on: NCI-H522
CCRF-CEM = tested on: CCRF-CEM
MCF7 = tested on: MCF7
A498 = tested on: A498
NCI-H23 = tested on: NCI-H23
SK-OV-3 = tested on: SK-OV-3
SK-MEL-5 = tested on: SK-MEL-5
PC-3 = tested on: PC-3
SNB-75 = tested on: SNB-75
HOP-92 = tested on: HOP-92
DU-145 = tested on: DU-145
K562 = tested on: K562
SNB-19 = tested on: SNB-19
UO-31 = tested on: UO-31
UACC-62 = tested on: UACC-62
NCI-H460 = tested on: NCI-H460
MOLT-4 = tested on: MOLT-4

SMILES | GI50 (LOX IMVI) | GI50 (T47D) | GI50 (OVCAR-8) | GI50 (NCI-H522) | GI50 (CCRF-CEM) | GI50 (MCF7) | GI50 (A498) | GI50 (NCI-H23) | GI50 (SK-OV-3) | GI50 (SK-MEL-5) | GI50 (PC-3) | GI50 (SNB-75) | GI50 (HOP-92) | GI50 (DU-145) | GI50 (K562) | GI50 (SNB-19) | GI50 (UO-31) | GI50 (UACC-62) | GI50 (NCI-H460) | GI50 (MOLT-4)
CCN(CC)C1Oc2cc3c(cc2C(c2cc(OC)c(OC)c(OC)c2)C1C)OCO3 (stereo not given) | 0.762 µM (active) | 9.35 µM (inactive) | 1.39 µM (inactive) | 0.344 µM (active) | 0.406 µM (active) | 0.435 µM (active) | 1.59 µM (inactive) | 1.53 µM (inactive) | 1.1 µM (active) | 0.408 µM (active) | 0.979 µM (active) | 4.25 µM (inactive) | 0.676 µM (active) | 1.77 µM (inactive) | 0.308 µM (active) | 1.29 µM (inactive) | 2.56 µM (inactive) | 1.06 µM (active) | 0.944 µM (active) | 0.871 µM (active)
O=C1C=CC(=O)c2c1ccc1c3ccccc3n(CCCCCn3c4ccccc4c4ccc5c(c43)C(=O)C=CC5=O)c21 | 16 µM (inactive) | 4.81 µM (inactive) | 17.7 µM (inactive) | 2.02 µM (inactive) | 0.454 µM (active) | 19.7 µM (inactive) | 54.5 µM (inactive) | 16 µM (inactive) | > 100 µM (inactive) | 32.4 µM (inactive) | 17.1 µM (inactive) | 14.9 µM (inactive) | 16.5 µM (inactive) | > 55.7 µM (inactive) | 2.06 µM (inactive) | 41.2 µM (inactive) | 7.87 µM (inactive) | 25.7 µM (inactive) | > 78 µM (inactive) | 1.52 µM (inactive)
C=C1C(=O)OC2CC1C(O)C/C(C)=C/CC/C(C)=C/C(O)CC2C (stereo not given) | 1.29 µM (inactive) | 0.824 µM (active) | 1.89 µM (inactive) | 0.216 µM (active) | 0.203 µM (active) | 2.06 µM (inactive) | 3.24 µM (inactive) | 2.44 µM (inactive) | 12.7 µM (inactive) | 4.19 µM (inactive) | 3.11 µM (inactive) | 3.43 µM (inactive) | 1.26 µM (inactive) | 2.2 µM (inactive) | 1 µM (active) | 5.47 µM (inactive) | 2.33 µM (inactive) | 2.34 µM (inactive) | 2.88 µM (inactive) | 0.625 µM (active)
Cc1cccc(C)c1/N=N/c1ccc(O)c(CN(C)C)c1 | 36.5 µM (inactive) | 23.6 µM (inactive) | > 100 µM (inactive) | 42.6 µM (inactive) | 34.8 µM (inactive) | 89.1 µM (inactive) | 35.6 µM (inactive) | 60.1 µM (inactive) | > 100 µM (inactive) | 11.7 µM (inactive) | 62.8 µM (inactive) | 75.3 µM (inactive) | 3.21 µM (inactive) | > 100 µM (inactive) | 28.6 µM (inactive) | > 100 µM (inactive) | 15.6 µM (inactive) | 26.7 µM (inactive) | 26 µM (inactive) | 34.8 µM (inactive)

Reference: ChEMBL document CHEMBL1201862, “PubChem BioAssay data set” (2004)
